Experiments:
Test in all cases: combination Emax (second highest fraction inhibited in the dose matrix, 72 h); higher = more inhibition; extreme values may be limits of the assay
[1] = system: CAL-120 (Breast Carcinoma)
Procedure, shortened: (§1)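 Bliss excess equals the observed combination effect minus the expected value EA + EB − EA·EB, where EA and EB are the effects of each agent alone. Combination Emax is the second-highest inhibition within the matrix. Inhibition was scaled from CellTiter-Glo 2.0 luminescence, with 0 set by vehicle wells and 1 by blank wells, after 72 hours of two-drug dosing of cells plated in 1536-well plates.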

GB-1 (Glioblastoma) = system: GB-1 (Glioblastoma)
Procedure, shortened: as §1

[2] = system: KE-37 (T-Lymphoblastic Leukemia)
Procedure, shortened: as §1

[3] = system: NCI-H23 (Lung Adenocarcinoma)
Procedure, shortened: as §1

[4] = system: TE-8 (Esophageal Squamous Cell Carcinoma)
Procedure, shortened: as §1

WM278 (Melanoma) = system: WM278 (Melanoma)
Procedure, shortened: as §1

Compound	combination Emax [1]	combination Emax (GB-1 (Glioblastoma))	combination Emax [2]	combination Emax [3]	combination Emax [4]	combination Emax (WM278 (Melanoma))
CN(C)CCCOc1ccc(-c2ccc3ncc4c(c3c2)n(C2CCOCC2)c(=O)n4C)cn1 [AZD0156] + C=CCn1c(=O)c2cnc(Nc3ccc(N4CCN(C)CC4)cc3)nc2n1-c1cccc(C(C)(C)O)n1 [AZD1775] (first compound max 1 µM, partner max 1 µM)	0.326	0.263	1	0.815	0.783	0.228
CN(C)CCCOc1ccc(-c2ccc3ncc4c(c3c2)n(C2CCOCC2)c(=O)n4C)cn1 [AZD0156] + CCN(CCO)CCCOc1ccc2c(Nc3cc(CC(=O)Nc4cccc(F)c4)[nH]n3)ncnc2c1 [AZD2811] (first compound max 1 µM, 7x7, partner max 1 µM)	0.102	0.0845	1	0.151	0.196	0.0859
CN(C)CCCOc1ccc(-c2ccc3ncc4c(c3c2)n(C2CCOCC2)c(=O)n4C)cn1 [AZD0156] + C[C@@H]1COCCN1C2=NC(=NC(=C2)C3(CC3)[S@](=N)(=O)C)C4=C5C=CNC5=NC=C4 [AZD6738] (first compound max 1 µM, 7x7, partner max 10 µM)	0.437	0.392	1	0.786	0.817	0.341
C=CCn1c(=O)c2cnc(Nc3ccc(N4CCN(C)CC4)cc3)nc2n1-c1cccc(C(C)(C)O)n1 [AZD1775] + C[C@@H]1COCCN1C2=NC(=NC(=C2)C3(CC3)[S@](=N)(=O)C)C4=C5C=CNC5=NC=C4 [AZD6738] (first compound max 1 µM, partner max 10 µM)	0.583	0.595	1	0.913	0.932	0.44
C=CCn1c(=O)c2cnc(Nc3ccc(N4CCN(C)CC4)cc3)nc2n1-c1cccc(C(C)(C)O)n1 [AZD1775] + O=C(c1cc(Cc2n[nH]c(=O)c3ccccc23)ccc1F)N1CCN(C(=O)C2CC2)CC1 [Olaparib] (first compound max 1 µM, partner max 10 µM)	0.396	0.318	1	0.761	0.865	0.209
CCN(CCO)CCCOc1ccc2c(Nc3cc(CC(=O)Nc4cccc(F)c4)[nH]n3)ncnc2c1 [AZD2811] + C=CCn1c(=O)c2cnc(Nc3ccc(N4CCN(C)CC4)cc3)nc2n1-c1cccc(C(C)(C)O)n1 [AZD1775] (first compound max 1 µM, partner max 1 µM)	0.368	0.332	1	0.829	0.781	0.171
CCN(CCO)CCCOc1ccc2c(Nc3cc(CC(=O)Nc4cccc(F)c4)[nH]n3)ncnc2c1 [AZD2811] + C[C@@H]1COCCN1C2=NC(=NC(=C2)C3(CC3)[S@](=N)(=O)C)C4=C5C=CNC5=NC=C4 [AZD6738] (first compound max 1 µM, 7x7, partner max 10 µM)	0.396	0.366	1	0.785	0.781	0.332
CCN(CCO)CCCOc1ccc2c(Nc3cc(CC(=O)Nc4cccc(F)c4)[nH]n3)ncnc2c1 [AZD2811] + O=C(c1cc(Cc2n[nH]c(=O)c3ccccc23)ccc1F)N1CCN(C(=O)C2CC2)CC1 [Olaparib] (first compound max 1 µM, 7x7, partner max 10 µM)	0.293	0.194	0.998	0.235	0.335	0.166
CN(CCO)CC[C@H](CSc1ccccc1)Nc1ccc(S(=O)(=O)NC(=O)c2ccc(N3CCC([C@@H](O)c4ccccc4-c4ccc(Cl)cc4)CC3)cc2)cc1S(=O)(=O)C(F)(F)F [AZD4320] + C1CN(CCC1(C(=O)N[C@@H](CCO)C2=CC=C(C=C2)Cl)N)C3=NC=NC4=C3C=CN4 [Capivasertib] (first compound max 1 µM, 7x7, partner max 3 µM)	–	0.117	1	0.093	0.349	0.599
CN(CCO)CC[C@H](CSc1ccccc1)Nc1ccc(S(=O)(=O)NC(=O)c2ccc(N3CCC([C@@H](O)c4ccccc4-c4ccc(Cl)cc4)CC3)cc2)cc1S(=O)(=O)C(F)(F)F [AZD4320] + C=CCn1c(=O)c2cnc(Nc3ccc(N4CCN(C)CC4)cc3)nc2n1-c1cccc(C(C)(C)O)n1 [AZD1775] (first compound max 1 µM, partner max 1 µM)	0.854	0.223	1	0.832	0.932	0.765
CN(CCO)CC[C@H](CSc1ccccc1)Nc1ccc(S(=O)(=O)NC(=O)c2ccc(N3CCC([C@@H](O)c4ccccc4-c4ccc(Cl)cc4)CC3)cc2)cc1S(=O)(=O)C(F)(F)F [AZD4320] + CCN(CCO)CCCOc1ccc2c(Nc3cc(CC(=O)Nc4cccc(F)c4)[nH]n3)ncnc2c1 [AZD2811] (first compound max 1 µM, 7x7, partner max 1 µM)	0.829	0.117	1	0.216	0.583	0.635
CN(CCO)CC[C@H](CSc1ccccc1)Nc1ccc(S(=O)(=O)NC(=O)c2ccc(N3CCC([C@@H](O)c4ccccc4-c4ccc(Cl)cc4)CC3)cc2)cc1S(=O)(=O)C(F)(F)F [AZD4320] + CN(C)CCCOc1ccc(-c2ccc3ncc4c(c3c2)n(C2CCOCC2)c(=O)n4C)cn1 [AZD0156] (first compound max 1 µM, 7x7, partner max 1 µM)	0.744	0.0923	1	0.104	0.181	0.568
CN(CCO)CC[C@H](CSc1ccccc1)Nc1ccc(S(=O)(=O)NC(=O)c2ccc(N3CCC([C@@H](O)c4ccccc4-c4ccc(Cl)cc4)CC3)cc2)cc1S(=O)(=O)C(F)(F)F [AZD4320] + C[C@@H]1COCCN1C2=NC(=NC(=C2)C3(CC3)[S@](=N)(=O)C)C4=C5C=CNC5=NC=C4 [AZD6738] (first compound max 1 µM, 7x7, partner max 10 µM)	0.757	0.55	1	0.85	0.799	0.789
CN(CCO)CC[C@H](CSc1ccccc1)Nc1ccc(S(=O)(=O)NC(=O)c2ccc(N3CCC([C@@H](O)c4ccccc4-c4ccc(Cl)cc4)CC3)cc2)cc1S(=O)(=O)C(F)(F)F [AZD4320] + C[C@@H](Nc1cc(F)cc(F)c1)c1cc(C(=O)N(C)C)cc2c(=O)cc(N3CCOCC3)oc12 [AZD8186] (first compound max 1 µM, 7x7, partner max 3 µM)	0.735	0.548	1	0.335	0.463	0.85
CN(CCO)CC[C@H](CSc1ccccc1)Nc1ccc(S(=O)(=O)NC(=O)c2ccc(N3CCC([C@@H](O)c4ccccc4-c4ccc(Cl)cc4)CC3)cc2)cc1S(=O)(=O)C(F)(F)F [AZD4320] + Cc1cc2ncnn2cc1Nc1ncc2c(n1)n(C1CCOCC1)c(=O)n2C [AZD7648] (first compound max 1 µM, 7x7, partner max 10 µM)	0.748	0.17	1	0.156	0.193	0.555
CCc1c2c(nc3ccc(O)cc13)-c1cc3c(c(=O)n1C2)COC(=O)[C@]3(O)CC [SN-38] + O=C(c1cc(Cc2n[nH]c(=O)c3ccccc23)ccc1F)N1CCN(C(=O)C2CC2)CC1 [Olaparib] (first compound max 0.3 µM, 7x7, partner max 10 µM)	0.7	0.781	1	–	0.575	0.627
C[C@@H](c1ccc2nccn2c1)n1nnc2ncc(-c3cnn(C)c3)nc21 [Savolitinib] + CN(CC[C@H](CSC1=CC=CC=C1)NC2=C(C=C(C=C2)S(=O)(=O)NC(=O)C3=CC=C(C=C3)N4CCC(CC4)[C@H](C5=CC=CC=C5C6=CC=C(C=C6)Cl)O)S(=O)(=O)C(F)(F)F)CCO [AZD4320] (first compound max 1 µM, 7x7, partner max 1 µM)	0.65	0.15	1	0.316	–	0.55

— the supplement of paper PMC11061612
